The text below walks through data of ChEMBL document CHEMBL5465560, “Selectivity Literature for EUbOPEN Chemogenomic Library” (2024).

For orientation: IC50 means the midpoint of a concentration-inhibition curve.

For data set [1], the target named is Cyclin-dependent kinase 2 (Homo sapiens, UniProt P24941). The data set can be described thus: Selectivity interaction (Kinase panel (literature)) EUB0001199aCl CDK2. Particulars: at 1 µM.
Data set [2] concerns the target Ribosomal protein S6 kinase alpha-3 (Homo sapiens, UniProt P51812). The data set can be described thus: Selectivity interaction (ActivX KiNativ screen (kinase selectivity in THP-1 cell lysates)) EUB0000639a RPS6KA3. The data set is classed as subcellular. The note with it: lysate, at 0.01 µM.
Data set [3] concerns the target Ribosomal protein S6 kinase alpha-2 (Homo sapiens) (UniProt Q15349). The data set can be described thus: Selectivity interaction (ActivX KiNativ screen (kinase selectivity in THP-1 cell lysates)) EUB0000639a RPS6KA2. The class given is subcellular. The note with it: lysate.
Data set [4] addresses T1, Tyrosine-protein kinase Mer (Homo sapiens) (UniProt Q12866).
T1 sequence (whole entry): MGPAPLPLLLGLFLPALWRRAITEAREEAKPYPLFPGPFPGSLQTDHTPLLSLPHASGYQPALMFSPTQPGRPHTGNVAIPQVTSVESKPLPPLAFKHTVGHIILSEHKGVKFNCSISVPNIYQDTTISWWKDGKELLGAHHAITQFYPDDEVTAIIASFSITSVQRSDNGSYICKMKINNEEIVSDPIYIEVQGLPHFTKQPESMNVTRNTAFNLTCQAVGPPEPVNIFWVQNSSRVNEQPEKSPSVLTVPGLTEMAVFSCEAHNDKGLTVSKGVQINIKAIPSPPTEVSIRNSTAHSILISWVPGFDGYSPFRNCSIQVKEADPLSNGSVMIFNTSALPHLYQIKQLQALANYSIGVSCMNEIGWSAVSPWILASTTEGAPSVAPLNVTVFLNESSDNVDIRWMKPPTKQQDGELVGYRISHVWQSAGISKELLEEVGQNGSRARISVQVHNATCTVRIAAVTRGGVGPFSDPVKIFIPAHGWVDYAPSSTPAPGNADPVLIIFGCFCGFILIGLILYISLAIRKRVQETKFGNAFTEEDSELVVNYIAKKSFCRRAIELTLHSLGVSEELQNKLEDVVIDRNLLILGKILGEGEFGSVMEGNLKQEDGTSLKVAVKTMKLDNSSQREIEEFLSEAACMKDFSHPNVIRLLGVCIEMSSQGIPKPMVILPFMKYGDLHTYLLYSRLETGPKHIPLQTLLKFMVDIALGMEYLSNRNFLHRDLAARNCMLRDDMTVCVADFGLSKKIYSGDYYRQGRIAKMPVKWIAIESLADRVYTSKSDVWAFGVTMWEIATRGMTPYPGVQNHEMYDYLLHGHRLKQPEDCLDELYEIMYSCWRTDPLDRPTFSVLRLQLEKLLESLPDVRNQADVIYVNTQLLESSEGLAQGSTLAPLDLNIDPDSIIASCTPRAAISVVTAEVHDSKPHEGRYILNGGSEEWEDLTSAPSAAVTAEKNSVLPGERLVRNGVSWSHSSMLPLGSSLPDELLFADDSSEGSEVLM
The note with it: at 10 µM.

In data set [5] the target is Serine/threonine-protein kinase NIM1 (Homo sapiens, UniProt Q8IY84).
In data set [6] the target is T2, Serine/threonine-protein kinase MAK (Homo sapiens) (UniProt P20794).
T2 sequence (whole entry): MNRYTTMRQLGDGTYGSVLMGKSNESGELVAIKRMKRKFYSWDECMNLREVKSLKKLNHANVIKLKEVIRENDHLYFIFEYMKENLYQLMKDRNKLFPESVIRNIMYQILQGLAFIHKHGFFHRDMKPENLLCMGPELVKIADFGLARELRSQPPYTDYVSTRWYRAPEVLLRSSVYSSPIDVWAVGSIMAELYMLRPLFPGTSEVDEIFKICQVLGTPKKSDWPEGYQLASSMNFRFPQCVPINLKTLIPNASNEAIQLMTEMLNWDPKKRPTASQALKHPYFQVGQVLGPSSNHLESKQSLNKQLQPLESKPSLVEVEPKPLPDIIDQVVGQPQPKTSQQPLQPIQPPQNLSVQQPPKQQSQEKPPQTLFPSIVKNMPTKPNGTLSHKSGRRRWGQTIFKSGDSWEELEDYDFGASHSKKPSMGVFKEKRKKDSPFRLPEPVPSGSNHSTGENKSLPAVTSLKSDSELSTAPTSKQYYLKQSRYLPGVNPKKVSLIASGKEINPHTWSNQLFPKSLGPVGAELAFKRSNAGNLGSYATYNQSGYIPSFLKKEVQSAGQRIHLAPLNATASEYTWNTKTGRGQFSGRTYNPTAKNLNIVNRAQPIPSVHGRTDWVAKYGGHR
The data set can be described thus: Selectivity interaction (KinomeScan (DiscoverX)) EUB0000695a MAK. The note with it: at 100 nM.

Data set [7] has as its target Phosphatidylinositol 4-kinase type 2-alpha (Homo sapiens) (UniProt Q9BTU6). The data set can be described thus: Selectivity interaction (ProQinase) EUB0000171b PI4K2A.
Data set [8] addresses Protein polybromo-1 (Homo sapiens) (UniProt Q86U86). The data set can be described thus: Selectivity interaction (Bromodomain panel (DSF asssay)) EUB0000270b PBRM1.
Data set [9] concerns the target T3, 5-hydroxytryptamine receptor 2C (Homo sapiens) (UniProt P28335).
T3 sequence (whole entry): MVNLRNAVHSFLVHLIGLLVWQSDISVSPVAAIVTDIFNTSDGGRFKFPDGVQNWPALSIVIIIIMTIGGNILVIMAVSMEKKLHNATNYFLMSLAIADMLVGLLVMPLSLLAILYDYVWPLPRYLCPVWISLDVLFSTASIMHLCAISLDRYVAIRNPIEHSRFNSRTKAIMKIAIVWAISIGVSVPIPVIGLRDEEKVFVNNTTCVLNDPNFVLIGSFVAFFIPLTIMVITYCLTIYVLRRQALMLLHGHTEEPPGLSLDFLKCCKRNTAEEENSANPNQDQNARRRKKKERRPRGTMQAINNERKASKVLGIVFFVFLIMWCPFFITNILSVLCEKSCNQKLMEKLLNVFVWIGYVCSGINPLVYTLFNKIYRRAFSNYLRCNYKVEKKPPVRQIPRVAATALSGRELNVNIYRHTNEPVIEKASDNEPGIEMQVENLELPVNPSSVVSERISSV
The data set can be described thus: Selectivity interaction (Panel of kinases, GPCRs, ion channels and transporters (enzymatic assay)) EUB0000223bCl HTR2C.

Another data set deals with PXR (NR1I2) (Homo sapiens, UniProt O75469). The data set can be described thus: Selectivity interaction (Panel of kinases, GPCRs, ion channels and transporters (enzymatic assay)) EUB0000223bCl NR1I2.
Data set [10] has as its target Serine/threonine-protein kinase 32C (Homo sapiens) (UniProt Q86UX6). The data set can be described thus: Selectivity interaction (KinomeScan (DiscoverX)) EUB0000092b STK32C. The note with it: at 10 µM.
The target of data set [11] is Dual specificity tyrosine-phosphorylation-regulated kinase 1B (Homo sapiens, UniProt Q9Y463). The data set can be described thus: Selectivity interaction (Enzymatic assay) EUB0001550a DYRK1B.

Bounds are passed on as bounds.

Sequence of Ribosomal protein S6 kinase alpha-2 (Homo sapiens) (Q15349 whole entry): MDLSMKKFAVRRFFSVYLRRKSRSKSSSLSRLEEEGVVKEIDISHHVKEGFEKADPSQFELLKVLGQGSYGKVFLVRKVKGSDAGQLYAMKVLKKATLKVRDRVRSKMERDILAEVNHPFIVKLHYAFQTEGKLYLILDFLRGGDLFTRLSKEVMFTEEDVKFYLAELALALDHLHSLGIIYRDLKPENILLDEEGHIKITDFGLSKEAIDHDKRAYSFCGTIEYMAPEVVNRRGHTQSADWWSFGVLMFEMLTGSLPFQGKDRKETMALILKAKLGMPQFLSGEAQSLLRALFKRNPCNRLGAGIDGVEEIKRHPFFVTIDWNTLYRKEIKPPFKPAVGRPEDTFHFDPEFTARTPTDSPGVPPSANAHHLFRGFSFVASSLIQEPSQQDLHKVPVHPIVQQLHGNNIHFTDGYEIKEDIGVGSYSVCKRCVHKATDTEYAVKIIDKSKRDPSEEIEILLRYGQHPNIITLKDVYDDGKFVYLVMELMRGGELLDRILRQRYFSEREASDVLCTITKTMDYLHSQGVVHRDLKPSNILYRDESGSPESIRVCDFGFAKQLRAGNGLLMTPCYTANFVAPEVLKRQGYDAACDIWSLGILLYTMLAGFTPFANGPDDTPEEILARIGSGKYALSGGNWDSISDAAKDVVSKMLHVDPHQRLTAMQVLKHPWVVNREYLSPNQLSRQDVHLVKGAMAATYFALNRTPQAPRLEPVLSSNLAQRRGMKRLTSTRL
Sequence of Phosphatidylinositol 4-kinase type 2-alpha (Homo sapiens) (Q9BTU6 whole entry): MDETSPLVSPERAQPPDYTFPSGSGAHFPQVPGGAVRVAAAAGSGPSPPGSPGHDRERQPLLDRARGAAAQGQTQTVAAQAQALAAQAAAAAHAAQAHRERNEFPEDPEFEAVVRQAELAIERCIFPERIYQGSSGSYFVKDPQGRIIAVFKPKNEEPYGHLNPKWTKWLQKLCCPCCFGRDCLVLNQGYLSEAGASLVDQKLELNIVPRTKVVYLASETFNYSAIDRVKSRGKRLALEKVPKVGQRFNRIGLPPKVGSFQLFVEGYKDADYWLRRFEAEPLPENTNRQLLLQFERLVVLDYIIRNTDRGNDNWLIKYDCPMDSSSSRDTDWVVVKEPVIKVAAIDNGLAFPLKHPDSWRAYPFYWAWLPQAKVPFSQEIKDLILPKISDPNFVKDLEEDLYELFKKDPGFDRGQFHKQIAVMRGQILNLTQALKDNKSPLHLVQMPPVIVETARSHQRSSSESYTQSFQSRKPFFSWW
Sequence of Ribosomal protein S6 kinase alpha-3 (P51812 whole entry): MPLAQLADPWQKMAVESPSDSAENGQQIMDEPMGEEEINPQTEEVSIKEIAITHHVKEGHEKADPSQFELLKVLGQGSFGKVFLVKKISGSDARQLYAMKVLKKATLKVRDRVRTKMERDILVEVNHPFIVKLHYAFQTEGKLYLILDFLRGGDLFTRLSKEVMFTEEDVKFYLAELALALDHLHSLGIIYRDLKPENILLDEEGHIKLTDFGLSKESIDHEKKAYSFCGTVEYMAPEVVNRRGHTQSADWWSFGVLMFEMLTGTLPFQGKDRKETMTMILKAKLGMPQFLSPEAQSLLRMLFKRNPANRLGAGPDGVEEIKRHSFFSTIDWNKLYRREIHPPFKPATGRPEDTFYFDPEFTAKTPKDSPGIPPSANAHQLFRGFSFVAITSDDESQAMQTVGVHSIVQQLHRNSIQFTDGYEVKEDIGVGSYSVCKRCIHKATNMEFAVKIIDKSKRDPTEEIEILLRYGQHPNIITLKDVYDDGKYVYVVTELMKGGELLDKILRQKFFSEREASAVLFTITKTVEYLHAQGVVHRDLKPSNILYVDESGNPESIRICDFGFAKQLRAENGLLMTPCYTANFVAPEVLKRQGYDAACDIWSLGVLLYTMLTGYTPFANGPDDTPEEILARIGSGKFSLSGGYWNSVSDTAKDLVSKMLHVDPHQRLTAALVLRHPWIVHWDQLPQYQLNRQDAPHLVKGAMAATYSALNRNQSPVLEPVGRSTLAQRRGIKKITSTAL
Sequence of Serine/threonine-protein kinase NIM1 (Q8IY84 whole entry): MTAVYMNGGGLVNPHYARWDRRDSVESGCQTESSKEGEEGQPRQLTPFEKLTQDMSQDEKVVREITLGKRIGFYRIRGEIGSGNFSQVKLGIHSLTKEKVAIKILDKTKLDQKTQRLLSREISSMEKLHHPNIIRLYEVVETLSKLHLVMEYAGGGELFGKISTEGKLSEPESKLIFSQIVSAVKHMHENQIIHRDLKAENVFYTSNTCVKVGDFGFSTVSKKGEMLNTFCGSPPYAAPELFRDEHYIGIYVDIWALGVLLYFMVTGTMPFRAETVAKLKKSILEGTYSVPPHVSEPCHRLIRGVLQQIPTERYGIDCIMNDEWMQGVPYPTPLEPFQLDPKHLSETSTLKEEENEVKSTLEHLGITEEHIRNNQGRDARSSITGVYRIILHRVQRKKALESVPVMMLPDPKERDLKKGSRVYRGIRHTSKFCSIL
Sequence of Dual specificity tyrosine-phosphorylation-regulated kinase 1B (Q9Y463 whole entry): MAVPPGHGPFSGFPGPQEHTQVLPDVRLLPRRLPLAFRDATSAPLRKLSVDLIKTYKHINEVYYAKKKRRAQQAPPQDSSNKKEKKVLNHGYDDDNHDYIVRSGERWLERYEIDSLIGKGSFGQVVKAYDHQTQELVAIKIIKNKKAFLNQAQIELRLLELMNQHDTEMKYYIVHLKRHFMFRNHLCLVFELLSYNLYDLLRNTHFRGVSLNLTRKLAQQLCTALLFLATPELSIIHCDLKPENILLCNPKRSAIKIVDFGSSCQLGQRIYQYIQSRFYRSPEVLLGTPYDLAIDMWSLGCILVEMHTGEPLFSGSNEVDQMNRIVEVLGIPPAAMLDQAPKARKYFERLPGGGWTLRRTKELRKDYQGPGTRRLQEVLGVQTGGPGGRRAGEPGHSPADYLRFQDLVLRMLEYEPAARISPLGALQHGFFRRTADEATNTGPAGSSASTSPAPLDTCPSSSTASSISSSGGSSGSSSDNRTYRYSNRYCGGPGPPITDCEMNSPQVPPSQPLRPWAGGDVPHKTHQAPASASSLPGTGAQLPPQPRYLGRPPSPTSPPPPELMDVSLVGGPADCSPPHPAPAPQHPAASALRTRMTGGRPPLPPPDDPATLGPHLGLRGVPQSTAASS
Sequence of Serine/threonine-protein kinase 32C (Homo sapiens) (Q86UX6 whole entry): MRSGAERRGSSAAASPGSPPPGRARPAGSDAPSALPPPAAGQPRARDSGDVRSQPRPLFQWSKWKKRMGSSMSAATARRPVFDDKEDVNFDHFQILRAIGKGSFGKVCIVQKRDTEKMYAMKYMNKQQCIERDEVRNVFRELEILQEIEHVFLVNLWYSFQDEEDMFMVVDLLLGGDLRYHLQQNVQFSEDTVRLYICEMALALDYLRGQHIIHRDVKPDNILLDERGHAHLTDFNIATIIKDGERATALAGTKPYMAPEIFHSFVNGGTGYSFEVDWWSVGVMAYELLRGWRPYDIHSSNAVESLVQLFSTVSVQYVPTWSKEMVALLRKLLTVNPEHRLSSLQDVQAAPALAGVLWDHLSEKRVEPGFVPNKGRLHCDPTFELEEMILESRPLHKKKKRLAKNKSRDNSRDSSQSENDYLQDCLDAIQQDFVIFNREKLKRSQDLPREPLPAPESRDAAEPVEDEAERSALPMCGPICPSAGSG
Sequence of PXR (NR1I2) (O75469 whole entry): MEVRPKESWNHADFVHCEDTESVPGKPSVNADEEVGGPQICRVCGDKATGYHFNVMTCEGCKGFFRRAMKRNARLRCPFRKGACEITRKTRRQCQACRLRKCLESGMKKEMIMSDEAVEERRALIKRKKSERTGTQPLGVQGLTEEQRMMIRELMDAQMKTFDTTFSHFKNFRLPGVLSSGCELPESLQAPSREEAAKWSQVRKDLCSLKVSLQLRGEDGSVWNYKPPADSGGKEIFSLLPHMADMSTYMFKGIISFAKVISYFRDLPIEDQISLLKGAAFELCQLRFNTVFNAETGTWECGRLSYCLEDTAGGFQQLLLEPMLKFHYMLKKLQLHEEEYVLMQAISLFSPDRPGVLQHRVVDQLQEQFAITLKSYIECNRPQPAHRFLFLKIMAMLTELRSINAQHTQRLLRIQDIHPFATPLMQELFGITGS

On to `CN1Cc2nccc(-c3cn(C)nc3-c3ccc(F)cc3)c2C1=O`, for which the % of inhibition in [1] was found to be 4%. Turning to `CC[C@@H]1[C@H](F)C(=O)N[C@@H]1COc1nccc2cc(C(N)=O)c(OC)cc12` [ZIMLOVISERTIB], the % of inhibition is -9.7% in data set [2]; 16.9% in data set [3] (at 0.01 µM); 12.4% in data set [3] (at 0.04 µM); 10.3% in data set [3] (at 0.2 µM); 8.6% in [3] (at 1 µM); 11.7% in data set [3] (at 5 µM). Take `CCN(CC)CCCCNc1ncc2cc(-c3cc(OC)cc(OC)c3)c(NC(=O)NC(C)(C)C)nc2n1`: in data set [4], the % of control worked out at 100%. Consider `CCc1cccc(CC)c1NC(=O)c1nn(C)c2c1CCc1cnc(Nc3ccc(C(=O)NC4CCN(C)CC4)cc3OC(F)(F)F)nc1-2`, for which, in [5], the IC50 was above 10 µM. Molecule `Cc1cc(F)c(C(=O)Nc2cccc(-c3nncn3C(C)C)n2)cc1-n1cnc(C2CC2)c1` came in with a % of control in [6] of 100%. As to `C=CC(=O)Nc1cccc(C(=O)Nc2ccc(Nc3cc(-c4[nH]c(SC)nc4C)ccn3)cc2)c1`, the % of control in data set [7] (at 1 µM) was found to be 117%; in [7] (at 5 µM) it was 133%. Molecule `Cc1cc(CN)cc(C)c1-c1ncn(C)c1-c1cncn1C` had a dTM in data set [8] of -1.91 K. The molecule `COc1cc(C(=O)N2CC[C@@H](O)[C@@H](N)C2)cc2nc(-c3cc4ccccc4n3CC3CC3)n(C)c12` came in with a pXC50 in data set [9] below 4.4 M. Further, the XC50 at PXR (NR1I2) was above 50.1 µM.

The molecule `CCC(=O)N1CCN(c2ccc(-n3c(=O)ccc4cnc5ccc(-c6cnc7ccccc7c6)cc5c43)cc2C(F)(F)F)CC1` had a % of control in [10] of 100%. In data set [11], `CN(C)CC#Cc1ccc2[nH]c3c(c2c1)-c1nc(N)ncc1CCC3` returned an IC50 of 0.38 µM.
